{"source": "paper PMC2216936", "about": "(The Journal of General Physiology, 1995)", "key": {"[1]": {"system": "voltage-gated sodium channel (GH3 cells; isoform not stated)", "test": "whole-cell voltage clamp, block of peak INa", "format": "cell-based"}, "[2]": {"target": "voltage-gated sodium channel (sheep brain synaptoneurosomes; isoform not stated)", "test": "inhibition of [3H]-BTX-B radioligand binding at […] C", "design": "species or system Ovis aries"}}, "note": "pIC50: −log10 of the molar value."}
{"smiles": "CCCCN(CCCC)CCNC(=O)c1ccc(N=[N+]=[N-])cc1", "note": "[DNB-AB, N-(2-di-N-butyl-aminoethyl)-4-azidobenzamide]", "values": [{"measurement": "pIC50", "setting": "[1]", "value": 4.57}, {"measurement": "pIC50", "setting": "[2]", "value": 5.48}]}
